Data published in the NIST ThermoML archive (doi:10.1021/je060271a).
Where “and” joins values, the source holds several entries; their conditions need not be identical. Identical values can stand only once.

Conditions: 343.15 K, Liquid, Vibrating tube method

CCCCCC(=O)OCC(COC(=O)CCCCC)(COC(=O)CCCCC)COC(=O)CCCCC [pentaerythritol tetrahexanoate]
Conditions	mass density
398.2 kPa	957.4 kg/m3
398.4 kPa	957.4 kg/m3
399.3 kPa	957.3 kg/m3
399.8 kPa	957.5 kg/m3
400.1 kPa	957.4 kg/m3
400.6 kPa	957.2 kg/m3
400.8 kPa	957.4 kg/m3
401.5 kPa	957.5 kg/m3
402 kPa	957.5 kg/m3
402.4 kPa	957.3 kg/m3
402.9 kPa	957.6 kg/m3
403.4 kPa	957.4 kg/m3
403.9 kPa	957.4 kg/m3
404.3 kPa	957.5 kg/m3
404.8 kPa	957.4 kg/m3
407.4 kPa	957.3 kg/m3
407.9 kPa	957.4 kg/m3
408.6 kPa	957.4 kg/m3
409 kPa	957.3 kg/m3
409.2 kPa	957.4 kg/m3
409.9 kPa	957.3 kg/m3
410.4 kPa	957.3 kg/m3
413 kPa	957.4 kg/m3
413.5 kPa	957.5 kg/m3
413.9 kPa	957.4 kg/m3
414.4 kPa	957.4 kg/m3
414.9 kPa	957.3 kg/m3
415.1 kPa	957.5 kg/m3
418 kPa	957.4 kg/m3
418.5 kPa	957.5 kg/m3
419.6 kPa	957.4 kg/m3
419.8 kPa	957.4 kg/m3
420.3 kPa	957.3 kg/m3
421.3 kPa	957.3 kg/m3
421.5 kPa	957.3 kg/m3
423.4 kPa	957.3 kg/m3
423.9 kPa	957.3 kg/m3
424.1 kPa	957.4 kg/m3
425.1 kPa	957.3 kg/m3
425.5 kPa	957.4 kg/m3
425.7 kPa	957.4 kg/m3
426.2 kPa	957.4 kg/m3
426.7 kPa	957.3 kg/m3
427.2 kPa	957.3 kg/m3
427.9 kPa	957.5 kg/m3
428.4 kPa	957.4 kg/m3
429 kPa	957.5 kg/m3
429.5 kPa	957.4 kg/m3
429.8 kPa	957.5 kg/m3
430.4 kPa	957.5 kg/m3
430.9 kPa	957.4 kg/m3
431.6 kPa	957.4 kg/m3 and 957.5 kg/m3
431.9 kPa	957.5 kg/m3
432.6 kPa	957.4 kg/m3
432.8 kPa	957.5 kg/m3
433 kPa	957.3 kg/m3
435 kPa	957.5 kg/m3
437.5 kPa	957.5 kg/m3
440.8 kPa	957.4 kg/m3
443.6 kPa	957.3 kg/m3
446.3 kPa	957.4 kg/m3
449.5 kPa	957.5 kg/m3
452.2 kPa	957.5 kg/m3
455.6 kPa	957.4 kg/m3
458.5 kPa	957.4 kg/m3
461.8 kPa	957.4 kg/m3
464.6 kPa	957.3 kg/m3
468.2 kPa	957.4 kg/m3
471.5 kPa	957.4 kg/m3
474.8 kPa	957.4 kg/m3
477.4 kPa	957.5 kg/m3
481.3 kPa	957.6 kg/m3
484.6 kPa	957.4 kg/m3
487.7 kPa	957.3 kg/m3
491.5 kPa	957.4 kg/m3
525.8 kPa	957.3 kg/m3
529.4 kPa	957.6 kg/m3
533.4 kPa	957.5 kg/m3
538.1 kPa	957.5 kg/m3
545.9 kPa	957.4 kg/m3
550.2 kPa	957.6 kg/m3
555.3 kPa	957.6 kg/m3
559.3 kPa	957.5 kg/m3
564 kPa	957.5 kg/m3
569 kPa	957.5 kg/m3
573.7 kPa	957.5 kg/m3
578 kPa	957.5 kg/m3
584 kPa	957.6 kg/m3
588.1 kPa	957.6 kg/m3
593 kPa	957.5 kg/m3
603.9 kPa	957.5 kg/m3
609 kPa	957.6 kg/m3
614.9 kPa	957.5 kg/m3
620.1 kPa	957.6 kg/m3
625 kPa	957.5 kg/m3
631.2 kPa	957.5 kg/m3
636.6 kPa	957.6 kg/m3
641.6 kPa	957.6 kg/m3
647 kPa	957.7 kg/m3
653.6 kPa	957.6 kg/m3
659.4 kPa	957.5 kg/m3
666.5 kPa	957.5 kg/m3
672.6 kPa	957.7 kg/m3
678.3 kPa	957.5 kg/m3
684.7 kPa	957.7 kg/m3
691 kPa	957.6 kg/m3
697.2 kPa	957.5 kg/m3
704.9 kPa	957.6 kg/m3
711.5 kPa	957.6 kg/m3
719.3 kPa	957.5 kg/m3
725.9 kPa	957.6 kg/m3
732.7 kPa	957.6 kg/m3
739.6 kPa	957.6 kg/m3
747.6 kPa	957.6 kg/m3
786 kPa	957.7 kg/m3
793.7 kPa	957.6 kg/m3
801.8 kPa	957.7 kg/m3
809.8 kPa	957.8 kg/m3
818 kPa	957.6 kg/m3
828.1 kPa	957.7 kg/m3
836.4 kPa	957.7 kg/m3
845.3 kPa	957.6 kg/m3
855.7 kPa	957.8 kg/m3
864.5 kPa	957.8 kg/m3
873.7 kPa	957.7 kg/m3
883.3 kPa	957.6 kg/m3
894.6 kPa	957.6 kg/m3
904.5 kPa	957.9 kg/m3
915.8 kPa	957.7 kg/m3
967 kPa	957.8 kg/m3
977.1 kPa	957.8 kg/m3
989.1 kPa	957.8 kg/m3
999.5 kPa	957.8 kg/m3
1011.5 kPa	957.9 kg/m3
1022.2 kPa	957.7 kg/m3
1032.7 kPa	958 kg/m3
1043.4 kPa	957.9 kg/m3
1053.7 kPa	957.9 kg/m3
1066.4 kPa	958 kg/m3
1076.6 kPa	957.9 kg/m3
1087.5 kPa	957.9 kg/m3
1100.4 kPa	957.8 kg/m3
1110.6 kPa	958 kg/m3
1121.6 kPa	957.9 kg/m3
1134.6 kPa	957.9 kg/m3
1280.5 kPa	958.2 kg/m3
1295.1 kPa	958.1 kg/m3
1307.6 kPa	958.1 kg/m3
1320.1 kPa	958.1 kg/m3
1332.9 kPa	958.2 kg/m3
1348.2 kPa	958.2 kg/m3
1414.9 kPa	958.2 kg/m3
1428.2 kPa	958.2 kg/m3
1444 kPa	958.2 kg/m3
1457.4 kPa	958.2 kg/m3
1470.4 kPa	958.2 kg/m3
1483.5 kPa	958.1 kg/m3
1513.7 kPa	958.3 kg/m3
1557.9 kPa	958.3 kg/m3
1571.7 kPa	958.3 kg/m3
1588.7 kPa	958.4 kg/m3
1603.1 kPa	958.4 kg/m3
1617.5 kPa	958.4 kg/m3
1697.7 kPa	958.3 kg/m3
1713.1 kPa	958.5 kg/m3
1728.4 kPa	958.5 kg/m3
1747.5 kPa	958.3 kg/m3
1763.5 kPa	958.4 kg/m3
1779.3 kPa	958.3 kg/m3
1795.9 kPa	958.4 kg/m3
1815 kPa	958.5 kg/m3
1831.3 kPa	958.5 kg/m3
1848.3 kPa	958.5 kg/m3
1865 kPa	958.4 kg/m3
1884.9 kPa	958.5 kg/m3
1902.5 kPa	958.6 kg/m3
1920.5 kPa	958.6 kg/m3
1937.8 kPa	958.6 kg/m3
1958.6 kPa	958.5 kg/m3
1976.1 kPa	958.6 kg/m3
1993.6 kPa	958.7 kg/m3
2012 kPa	958.6 kg/m3
2033.4 kPa	958.6 kg/m3
2051.6 kPa	958.6 kg/m3
2070.2 kPa	958.9 kg/m3
2092.2 kPa	958.6 kg/m3
2363.6 kPa	958.8 kg/m3
2384.2 kPa	958.9 kg/m3
2409 kPa	959 kg/m3
2429.7 kPa	959 kg/m3
2451.3 kPa	959 kg/m3
2477.2 kPa	959.1 kg/m3
2710.1 kPa	959.1 kg/m3
2733 kPa	959.1 kg/m3
2756.2 kPa	959.1 kg/m3
2778.8 kPa	959.3 kg/m3
2805.7 kPa	959.1 kg/m3
2828.2 kPa	959.3 kg/m3
2850.2 kPa	959.4 kg/m3
2877.4 kPa	959.2 kg/m3
2900.2 kPa	959.2 kg/m3
2971.9 kPa	959.4 kg/m3
2994.1 kPa	959.4 kg/m3
3021 kPa	959.5 kg/m3
3043.4 kPa	959.5 kg/m3
3066.1 kPa	959.4 kg/m3
3093.1 kPa	959.5 kg/m3
3115.3 kPa	959.5 kg/m3
3138.2 kPa	959.4 kg/m3
3165.6 kPa	959.5 kg/m3
3188.6 kPa	959.5 kg/m3
3212 kPa	959.6 kg/m3
3235.3 kPa	959.5 kg/m3
3263.5 kPa	959.6 kg/m3
3286.6 kPa	959.7 kg/m3
3314.6 kPa	959.6 kg/m3
3338.4 kPa	959.7 kg/m3
3362.1 kPa	959.6 kg/m3
3386.4 kPa	959.6 kg/m3
3410.3 kPa	959.6 kg/m3
3439.1 kPa	959.8 kg/m3
3463 kPa	959.8 kg/m3
3486.9 kPa	959.8 kg/m3
3514.8 kPa	959.7 kg/m3
3538.6 kPa	959.8 kg/m3
3563 kPa	959.8 kg/m3
3592.3 kPa	959.9 kg/m3
3616.2 kPa	960 kg/m3
3640.6 kPa	959.9 kg/m3
3665.4 kPa	959.8 kg/m3
3695 kPa	959.9 kg/m3
3719.3 kPa	959.8 kg/m3
3743.2 kPa	960 kg/m3
3768 kPa	960 kg/m3
3796.7 kPa	960 kg/m3
3821.2 kPa	960 kg/m3
4008.1 kPa	960.2 kg/m3
4035.6 kPa	960.1 kg/m3
4062.6 kPa	960.2 kg/m3
4089.1 kPa	960.2 kg/m3
4120.6 kPa	960.3 kg/m3
4147.6 kPa	960.4 kg/m3
4174.5 kPa	960.3 kg/m3
4201.5 kPa	960.3 kg/m3
4234.2 kPa	960.2 kg/m3
4261.2 kPa	960.4 kg/m3
4288.4 kPa	960.4 kg/m3
4316.6 kPa	960.4 kg/m3
4350.4 kPa	960.4 kg/m3
4378.3 kPa	960.5 kg/m3
4414.7 kPa	960.4 kg/m3
4437.5 kPa	960.5 kg/m3
4465.6 kPa	960.6 kg/m3
4499.5 kPa	960.5 kg/m3
4528.1 kPa	960.6 kg/m3
4557.2 kPa	960.6 kg/m3
4592.3 kPa	960.7 kg/m3
4621.6 kPa	960.6 kg/m3
4656.7 kPa	960.6 kg/m3
4686.5 kPa	960.7 kg/m3
4715.9 kPa	960.6 kg/m3
4751.9 kPa	960.8 kg/m3
4781.7 kPa	960.8 kg/m3
4812.3 kPa	960.7 kg/m3
4843.3 kPa	960.8 kg/m3
4880.7 kPa	960.9 kg/m3
4911.1 kPa	960.8 kg/m3
4942.3 kPa	961 kg/m3
4973.8 kPa	960.9 kg/m3
5010.3 kPa	960.9 kg/m3
5041.6 kPa	960.9 kg/m3
5073.3 kPa	961 kg/m3
5110.1 kPa	961 kg/m3
5141.5 kPa	960.9 kg/m3
5173.8 kPa	961 kg/m3
5212.2 kPa	961.1 kg/m3
5245.4 kPa	961.1 kg/m3
5277.4 kPa	961.2 kg/m3
5309.8 kPa	961.2 kg/m3
5348.9 kPa	961.2 kg/m3
5381.6 kPa	961.3 kg/m3
5415.2 kPa	961.3 kg/m3
5454.8 kPa	961.2 kg/m3
5488.1 kPa	961.3 kg/m3
5521.5 kPa	961.3 kg/m3
5555.1 kPa	961.3 kg/m3
5594.9 kPa	961.4 kg/m3
5627.9 kPa	961.3 kg/m3
5662.1 kPa	961.3 kg/m3
